Experimental data: patent publication US20170342136A1, “MONOCLONAL ANTIBODY AGAINST MURAMYL PEPTIDES IN PREVENTION AND TREATMENT OF IMMUNE-MEDIATED DISEASES” (Agency for Science, Technology and Research, priority 2015, published 2017)

Assays:
[1] = Blood MP level after oral amoxicillin, competitive ELISA using 2E7; format: in vivo, mice; settings: 100 mg/kg oral at 12-h intervals, 4 h after each feeding
Experimental: Amoxicillin was administered orally to 50 mice at 12-h intervals and three mice were sacrificed every 4 h to collect blood for peptidoglycan quantification by ELISA. […] Serial blood samples were taken. Time for blood draw and IV injection are indicated.
The MP level in serum was determined by competitive ELISA using an example of the antibody of the present disclosure, i.e. 2E7.

[2] = system: Staphylococcus aureus; experiment: MPs in culture supernatant with or without amoxicillin, competitive ELISA using 2E7; format: cell-based; settings: 40 μg per ml amoxicillin added at OD600=1.5
Experimental: (§1) The standard curve was used to determine the peptidoglycan concentration in a sample. […] Both bacteria were grown to OD600=1.5. Each culture was divided into two, and one treated with 40 μg/ml amoxicillin (Amx) and the other untreated. Aliquots were collected at the indicated times and the amount of MPs in the supernatant was determined by competitive ELISA. […] After removing unbound antibodies by PBS washes, the cells were incubated with a FITC-labeled anti-mouse IgG Ab before fluorescence microscopic examination.
(§2) For this test, Gram-positive bacterium Staphylococcus aureus, which has a thick peptidoglycan layer, and Gram-negative Escherichia coli, which has a thin peptidoglycan layer, were selected and grown in the presence or absence of amoxicillin. The culture was grown to a density of OD600=1.5 and then divided into two equal aliquots. To one aliquot, amoxicillin was added to a final concentration of 40 μg per ml, and to the other aliquot, no drug was added. Both cultures were allowed to continue to grow. Aliquots of cultures were collected at timed intervals and cells were removed by centrifugation. The amount of MPs in the supernatant was determined by competitive ELISA using 2E7.

[3] = system: Escherichia coli; experiment: as above; format: cell-based; settings: 40 μg per ml amoxicillin added at OD600=1.5
Experimental: as §1, §2

[4] = system: Collagen Induced Arthritis (CIA) mouse model; experiment: Collagen Induced Arthritis (CIA) mouse model with implanted osmotic pump releasing MDP; format: in vivo, DBA/1J mice
Experimental: (A) illustrates the subcutaneous implantation of an osmotic pump loaded with 200 µl of 5 mg/ml MDP and released at a rate of 0.25μ1/hr onto the back of a mouse.
DBA/1J mice were induced to develop arthritis by immunization with an emulsion of complete Freund's adjuvant and type II collagen, and each mouse also carried an implanted pump as described in FIG. 5 that releases either PBS or MDP at 0.25 μl/hr.

Structure (SMILES)	increase in the blood MP level [1]	molecules in culture medium that inhibit 2E7 binding to MDP [2]	molecules in culture medium that inhibit 2E7 binding to MDP [3]	clinical paw scores ([4]; increase in MDP concentration, time dependent, n=4)	development of rheumatoid arthritis ([4]; pump releasing MDP at 0.25 μl/hr vs PBS)
CC1(C)S[C@@H]2[C@H](NC(=O)[C@H](N)c3ccc(O)cc3)C(=O)N2[C@H]1C(=O)O [amoxicillin]	20-60%	sharp increase	sharp increase	–	–
CC(=O)N[C@@H]1[C@@H](O[C@H](C)C(=O)N[C@@H](C)C(=O)N[C@H](CCC(=O)O)C(N)=O)[C@H](O)[C@@H](CO)O[C@H]1O [MDP]	–	–	–	increased clinical paw scores	promoted the development of rheumatoid arthritis
